Measurements published in patent US4826814A, “Tripeptide derivatives” (Dainippon Pharmaceutical Co., Ltd., priority 1986, dated 1989).
Starred links: 1 amine or outer side, 2 acyl side, 3 side chain; linkers in the order of their positions; H or OH if unused. Non-standard residues stand in square brackets, D forms with d. Residues, ends and D or L forms follow the SMILES beside them. *: point of attachment. d(γGlu) = O=C(O)[C@@H](CCC(=O)[*:2])N[*:1]; Oic = O=C(O)[C@@H]1C[C@@H]2CCCC[C@@H]2N1; Nicotinoyl = O=C(c1cccnc1)*; Cbz = O=C(OCc1ccccc1)*

What was measured:
[1] = target: angiotensin converting enzyme (ACE) (Homo sapiens, UniProt P12821); details: stated by the publication of Ksander et al.; cited from earlier work
[2] = target: T1, ACE preparation (rabbit lung) (Oryctolagus cuniculus, UniProt P12822); assay: In vitro ACE inhibitory activity (hippuryl-L-histidyl-L-leucine substrate); format: biochemical; details: 37° C., 30 minutes, pH 8.3
T1 construct: an ACE preparation (rabbit lung); from tissue; host or cells: rabbit lung
T1 sequence (P12822 34-1310): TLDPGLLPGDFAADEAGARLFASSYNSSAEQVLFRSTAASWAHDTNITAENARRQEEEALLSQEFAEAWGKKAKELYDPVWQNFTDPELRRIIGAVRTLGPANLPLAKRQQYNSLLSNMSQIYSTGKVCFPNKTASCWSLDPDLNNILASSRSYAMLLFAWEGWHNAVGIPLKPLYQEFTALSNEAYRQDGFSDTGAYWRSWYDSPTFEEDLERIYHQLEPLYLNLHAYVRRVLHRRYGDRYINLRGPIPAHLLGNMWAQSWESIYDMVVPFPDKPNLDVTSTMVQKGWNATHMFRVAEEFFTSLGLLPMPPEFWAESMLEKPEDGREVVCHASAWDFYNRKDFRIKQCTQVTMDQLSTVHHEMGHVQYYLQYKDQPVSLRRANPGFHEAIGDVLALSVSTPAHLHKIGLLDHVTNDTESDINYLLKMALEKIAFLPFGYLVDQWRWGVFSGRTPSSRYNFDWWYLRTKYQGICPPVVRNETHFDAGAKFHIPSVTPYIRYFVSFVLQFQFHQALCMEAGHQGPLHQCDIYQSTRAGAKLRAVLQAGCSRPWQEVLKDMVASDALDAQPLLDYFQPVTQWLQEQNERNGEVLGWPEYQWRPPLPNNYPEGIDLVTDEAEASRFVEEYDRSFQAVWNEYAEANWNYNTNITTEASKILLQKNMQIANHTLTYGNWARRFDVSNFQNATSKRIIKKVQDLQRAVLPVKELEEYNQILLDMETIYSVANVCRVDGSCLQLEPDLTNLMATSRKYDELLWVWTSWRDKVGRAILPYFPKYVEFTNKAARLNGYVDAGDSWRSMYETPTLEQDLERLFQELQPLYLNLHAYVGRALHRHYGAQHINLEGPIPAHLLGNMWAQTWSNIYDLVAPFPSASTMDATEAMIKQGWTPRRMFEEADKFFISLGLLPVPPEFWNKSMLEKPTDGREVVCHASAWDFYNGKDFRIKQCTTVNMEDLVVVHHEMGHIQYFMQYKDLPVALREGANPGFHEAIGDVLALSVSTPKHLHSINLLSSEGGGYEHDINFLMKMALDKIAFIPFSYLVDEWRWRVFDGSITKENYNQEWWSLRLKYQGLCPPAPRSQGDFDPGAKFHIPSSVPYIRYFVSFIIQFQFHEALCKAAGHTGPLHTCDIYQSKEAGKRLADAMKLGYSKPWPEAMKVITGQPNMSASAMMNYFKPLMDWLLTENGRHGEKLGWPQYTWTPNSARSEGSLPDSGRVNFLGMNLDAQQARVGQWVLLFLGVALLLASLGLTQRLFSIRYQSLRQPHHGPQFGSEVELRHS
Method: The assay medium contained an ACE preparation (rabbit lung), synthetic substrate (hippuryl-L-histidyl-L-leucine 5 mM), NaCl (300 mM) and phosphate buffer (100 mM, pH 8.3). It was mixed to a final volume of 0.300 ml and incubated at 37° C. for 30 minutes in the presence or absence of test compounds. After the reaction was terminated by adding 300 μl of 1N HCl, hippuric acid formed was extracted with 2 volume of ethyl acetate. After ethyl acetate was evaporated and distilled water was added, the hippuric acid was determined from its absorbance at 228 nm by spectrophotometer (Hitachi 100-41).
The degree of ACE inhibition was calculated from activities with and without test compounds. The IC50 value (molar concentration required for the 50% inhibition of ACE activity) was obtained from a dose-inhibition curve.

renal hypertensive rats = assay: Antihypertensive activity after single oral administration in two-kidney Goldblatt type renal hypertensive rats (tail-cuff blood pressure); format: in vivo, rat; details: for antihypertensive action after oral administration: in vivo test with rats; for Charge in pressure at 9 hours administration: blood pressure, renal hypertensive rats, single oral administration
Description: Male Sprague Dawley rats (5 weeks old) were subjected to constriction of the left renal artery with a silver clip (internal diameter: 0.22 mm) under light ether anesthesia. The right kidney and renal artery were left intact. About 6-10 weeks after clipping, rats showing a blood pressure above 180 mmHg were used. These treated rats are named two-kidney Goldblatt type renal hypertensive rats and considered as a typical model of reninangiotensin dependent hypertension.
The blood pressure was measured by a tail-cuff method using a programmed electro-sphygmomanometer (PE-300, Narco Biosystem, U. S. A.) after warming at 38° C. for 10 minutes in heating box.
The antihypertensive activity of test compounds was evaluated after single oral administration in renal hypertensive rats (3-5 rats/group).

Male STD-ddy strain mice = assay: Toxicity: oral LD50 in mice; format: in vivo
Description: Male STD-ddy strain mice weighing about 22 to 25 g were used.

angiotensin converting enzyme (ACE), sequence (P12821 30-1306, species assumed): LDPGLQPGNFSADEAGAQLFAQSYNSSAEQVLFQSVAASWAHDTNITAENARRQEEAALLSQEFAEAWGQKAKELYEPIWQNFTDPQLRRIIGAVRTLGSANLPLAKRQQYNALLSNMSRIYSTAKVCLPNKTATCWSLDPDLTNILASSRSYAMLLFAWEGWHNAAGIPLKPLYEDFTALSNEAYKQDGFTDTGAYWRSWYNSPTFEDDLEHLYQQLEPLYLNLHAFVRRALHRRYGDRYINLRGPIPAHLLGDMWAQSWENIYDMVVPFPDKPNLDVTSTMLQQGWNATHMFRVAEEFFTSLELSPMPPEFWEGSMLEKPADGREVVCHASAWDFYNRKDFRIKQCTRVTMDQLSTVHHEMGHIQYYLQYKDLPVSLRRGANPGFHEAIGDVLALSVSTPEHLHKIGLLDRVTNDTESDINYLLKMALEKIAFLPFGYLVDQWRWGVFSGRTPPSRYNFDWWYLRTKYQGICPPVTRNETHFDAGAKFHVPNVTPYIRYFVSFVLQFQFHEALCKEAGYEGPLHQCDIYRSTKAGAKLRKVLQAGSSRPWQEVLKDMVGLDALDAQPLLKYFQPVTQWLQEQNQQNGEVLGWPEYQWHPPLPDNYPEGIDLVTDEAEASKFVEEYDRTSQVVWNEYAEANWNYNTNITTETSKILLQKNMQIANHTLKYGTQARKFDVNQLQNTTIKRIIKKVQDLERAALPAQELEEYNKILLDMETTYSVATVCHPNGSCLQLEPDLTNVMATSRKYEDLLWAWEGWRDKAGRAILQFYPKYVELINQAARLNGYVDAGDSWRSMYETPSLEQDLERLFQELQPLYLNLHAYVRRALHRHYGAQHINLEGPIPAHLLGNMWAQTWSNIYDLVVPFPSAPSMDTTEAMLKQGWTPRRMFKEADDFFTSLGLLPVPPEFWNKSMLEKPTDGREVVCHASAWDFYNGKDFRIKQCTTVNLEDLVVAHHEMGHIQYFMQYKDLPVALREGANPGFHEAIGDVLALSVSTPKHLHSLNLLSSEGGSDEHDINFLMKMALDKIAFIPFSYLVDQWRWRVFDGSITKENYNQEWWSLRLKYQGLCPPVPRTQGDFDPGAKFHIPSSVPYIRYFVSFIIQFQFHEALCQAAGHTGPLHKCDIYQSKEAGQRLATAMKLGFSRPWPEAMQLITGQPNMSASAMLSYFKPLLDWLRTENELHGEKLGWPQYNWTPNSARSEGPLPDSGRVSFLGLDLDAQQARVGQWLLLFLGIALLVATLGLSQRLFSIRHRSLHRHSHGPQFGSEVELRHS

## NCCCC[C@H](N)C(=O)N[C@H](CCC(=O)N1c2ccccc2C[C@H]1C(=O)O)C(=O)O [1-(L-lysyl-γ-D-glutamyl)indoline-2(S)carboxylic acid, reference compound]
[1]
  in vitro inhibition of ACE: show in vitro inhibition of ACE
[2]
  IC50: 18.8 nM
Renal hypertensive rats
  antihypertensive action after oral administration: do not show any significant antihypertensive action

## NCCCC[C@H](NC(=O)OC1CCCC1)C(=O)N[C@H](CCC(=O)N1[C@H](C(=O)O)C[C@@H]2CCCC[C@@H]21)C(=O)O [Example 30, (2S,3aS,7aS)-1-(N^2 -Cyclopentyloxycarbonyl-L-lysyl-gamma-D-glytamyl)octahydro-1H-indole-2-carboxylic acid]
Renal hypertensive rats; dose of 10 mg/kg
  Charge in pressure at 9 hours administration: -38

## NCCCC[C@H](NC(=O)c1ccncc1)C(=O)N[C@H](CCC(=O)N1[C@H](C(=O)O)C[C@@H]2CCCC[C@@H]21)C(=O)O [Example 29, (2S,3aS,7aS)-1-(N^2 -Isonicotinoyl-L-lysyl-gamma-D-glutamyl)octoahydro-1H-indole-2-carboxylic acid]
Renal hypertensive rats; dose of 10 mg/kg
  Charge in pressure at 9 hours administration: -38

## NCCCC[C@H](NC(=O)C1CCC1)C(=O)N[C@H](CCC(=O)N1[C@H](C(=O)O)C[C@@H]2CCCC[C@@H]21)C(=O)O [Example 18, (2S,3aS,7aS)-1-(N^2 -Cyclobutanecarbonyl-L-lysl-gamma-D-glutamyl)octahydro-1H-indole-2-carboxylic acid]
Renal hypertensive rats; dose of 10 mg/kg
  Charge in pressure at 9 hours administration: -42

## O=C(NCCCC[C@H](NC(=O)OCc1ccccc1)C(=O)N[C@H](CCC(=O)N1c2ccccc2C[C@H]1C(=O)O)C(=O)O)OCc1ccccc1 [1-(N^2,N^6dibenzyloxycarbonyl-L-lysyl-γ-D-glutamyl)indoline-2(S)carboxylic acid, reference compound]
[1]
  in vitro inhibition of ACE: show in vitro inhibition of ACE
Renal hypertensive rats; dose of 30 mg/kg
  Charge in pressure at 9 hours administration: -2
Renal hypertensive rats
  antihypertensive action after oral administration: do not show any significant antihypertensive action

## NCCCC[C@H](NC(=O)OCc1ccccc1)C(=O)N[C@H](CCC(=O)N1[C@H](C(=O)O)C[C@@H]2CCCC[C@@H]21)C(=O)O [Example 11, (2S,3aS,7aS)-1-(N^2 -Benzyloxycarboxyl-L-lysyl-gamma-D-glutamyl)octahydro-1H-indole-2-carboxylic acid] (Cbz-Lys-[d(γGlu)]-[Oic]-OH)
Renal hypertensive rats; dose of 10 mg/kg
  Charge in pressure at 9 hours administration: -37

## NCCCC[C@H](NC(=O)OCCc1ccccn1)C(=O)N[C@H](CCC(=O)N1c2ccccc2C[C@H]1C(=O)O)C(=O)O [Example 38, 1-[N^2-(2-Pyridineethoxycarbonyl)-L-lysyl-gamma-D-glutamyl]indoline-2(S)-carboxylic acid]
Renal hypertensive rats; dose of 10 mg/kg
  Charge in pressure at 9 hours administration: -27

## NCCCC[C@H](NC(=O)c1cccnc1)C(=O)N[C@H](CCC(=O)N1[C@H](C(=O)O)C[C@@H]2CCCC[C@@H]21)C(=O)O [Example 15, (2S,3aS,7aS)-1-(N^2 -Nicotinoyl-L-lysyl-gamma-D-glutamyl)octahydro-1H-indole-2-carboxylic acid] (Nicotinoyl-Lys-[d(γGlu)]-[Oic]-OH)
Male STD-ddy strain mice
  oral LD50: more than 3,000 mg per kilogram of body weight
[2]
  IC50: 6.4 nM

## NCCC[S+]([O-])C[C@H](NC(=O)OCc1ccccc1)C(=O)N[C@H](CCC(=O)N1[C@H](C(=O)O)C[C@@H]2CCCC[C@@H]21)C(=O)O (stereo partly drawn) [Example 76, (2S,3aS,7aS)-1-[N-Benzyloxycarbonyl-S-(3-aminopropyl)-L-cysteinyl-gamma-D-glutamyl]octahydro-1H-indole-2-carboxylic acid sulfoxide]
Renal hypertensive rats; dose of 10 mg/kg
  Charge in pressure at 9 hours administration: -31

## NCCCC[C@H](NC(=O)OCc1ccc2c(c1)OCO2)C(=O)N[C@H](CCC(=O)N1c2ccccc2C[C@H]1C(=O)O)C(=O)O [Example 74, 1-[N^2-(3,4-Methylenedioxybenzyloxycarbonyl)-L-lysyl-gamma-D-glutamyl]indoline-2(S)-carboxylic acid]
[2]
  IC50: 6.6 nM

## NCCCC[C@H](NC(=O)C1CCCCC1)C(=O)N[C@H](CCC(=O)N1c2ccccc2C[C@H]1C(=O)O)C(=O)O [Example 71, 1-(N^2 -Cyclohexylcarbonyl-L-lysyl-gamma-D-glutamyl)indoline-2(S)-carboxylic acid]
[2]
  IC50: 27 nM

## NCCCC[C@H](NC(=O)c1ccc(Cl)cc1)C(=O)N[C@H](CCC(=O)N1[C@H](C(=O)O)C[C@@H]2CCCC[C@@H]21)C(=O)O [Example 55, (2S,3aS,7aS)-1-[N^2-(4-Chlorobenzoyl)-L-lysyl-gamma-D-glutamyl]octahydro-1H-indole-2-carboxylic acid]
[2]
  IC50: 6.2 nM

## NCCCC[C@H](NC(=O)[C@@H]1CCCN1)C(=O)N[C@H](CCC(=O)N1c2ccccc2C[C@H]1C(=O)O)C(=O)O [Example 9, 1-(L-prolyl-L-lysyl-gamma-D-glutamyl)indoline-2(S)-carboxylic acid]
[2]
  IC50: 36 nM

## NCCCC[C@H](NC(=O)c1ccc(O)cc1)C(=O)N[C@H](CCC(=O)N1[C@H](C(=O)O)C[C@@H]2CCCC[C@@H]21)C(=O)O [Example 51, (2S,3aS,7aS)-1-[N^2-(4-Hydroxybenzoyl)-L-lysyl-gamma-D-glutamyl)octahydro-1H-indole-2-carboxylic acid]
Male STD-ddy strain mice
  oral LD50: more than 3,000 mg per kilogram of body weight
[2]
  IC50: 5.2 nM

## NCCCC[C@H](NC(=O)c1cccs1)C(=O)N[C@H](CCC(=O)N1[C@H](C(=O)O)C[C@@H]2CCCC[C@@H]21)C(=O)O [Example 52, (2S,3aS,7aS)-1-[N^2-(2-Thiophenecarbonyl)-L-lysyl-gamma-D-glutamyl]octahydro-1H-indole-2-carboxylic acid]
[2]
  IC50: 4.5 nM

## NCCCC[C@H](NC(=O)OCCc1ccccc1)C(=O)N[C@H](CCC(=O)N1[C@H](C(=O)O)C[C@@H]2CCCC[C@@H]21)C(=O)O [Example 26, (2S,3aS,7aS)-1-[N^2 -Phenethyloxycarbonyl-L-lysyl-gamma-D-glutamyl]octahydro-1H-indole-2-carboxylic acid]
[2]
  IC50: 4.6 nM

## NCCCC[C@H](NC(=O)OCCC1CCCCC1)C(=O)N[C@H](CCC(=O)N1c2ccccc2C[C@H]1C(=O)O)C(=O)O [Example 34, 1-(N^2 -Cyclohexylethoxycarbonyl-L-lysyl-gamma-D-glutamyl)indoline-2(S)-carboxylic acid]
[2]
  IC50: 8 nM
